From paper PMC8387043, “Host Poly(A) Polymerases PAPD5 and PAPD7 Provide Two Layers of Protection That Ensure the Integrity and Stability of Hepatitis B Virus RNA” (Journal of Virology, 2021)
pIC50: −log10 of the molar value.

Tests used:
recombinant human PAPD5 = biological target: T1, recombinant human PAPD5 (Homo sapiens, UniProt Q8NDF8); experiment: PAPD5 ATP depletion assay; type: biochemical; conditions: truncated recombinant human PAPD5, ATP depletion
T1 construct: PAPD5 (amino acids 186 to 518; XM_011523275); 10xHis (N); Flag (N); TEV cleavage site (N); host or cells: E. coli BL21(DE3), vector pET-24a(+)
T1 sequence (Q8NDF8 106-438 limits assumed): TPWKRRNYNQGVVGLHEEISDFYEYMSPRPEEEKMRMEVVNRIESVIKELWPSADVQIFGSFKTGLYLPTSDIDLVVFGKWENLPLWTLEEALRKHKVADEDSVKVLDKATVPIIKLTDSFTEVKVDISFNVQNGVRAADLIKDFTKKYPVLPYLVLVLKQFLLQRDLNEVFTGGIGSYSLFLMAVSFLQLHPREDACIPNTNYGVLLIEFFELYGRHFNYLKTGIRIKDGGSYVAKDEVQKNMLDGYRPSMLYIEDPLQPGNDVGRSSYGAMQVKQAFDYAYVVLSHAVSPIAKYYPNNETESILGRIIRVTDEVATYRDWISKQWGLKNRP
Experimental: Molecular cloning, expression, and purification of the recombinant human PAPD5 and PAPD7 proteins were performed at Xtal BioStructures (MA, USA). PAPD5 (amino acids 186 to 518; GenBank accession no. XM_011523275) and PAPD7 (amino acids 226 to 558; GenBank accession no. NM_006999.6) genes comprising of nucleotidyltransferase and PAP-associated domains were codon optimized, synthesized, and inserted in the expression vector pET-24a(+) for E. coli expression with 10×His-Flag-tobacco etch virus (TEV) tags at the N terminus. The pET-24a(+) constructs were transformed into E. coli-competent cells BL21(DE3). […] Expression of protein was induced for 16 h with 0.2 mM IPTG (isopropyl-β-D-thiogalactopyranoside) at 18°C. […] Roche). Cell suspension was sonicated 8 × 20 s at 27 to 30 W (power level, 3.5 to 4.0) with 40-s breaks between each pulse. Lysate was cleared by centrifugation in a 50-ml conical tube at 20,000 × g for 30 min (Fiberlite F13-14 × 50cy rotor in a Sorvall RC6 centrifuge). Supernatant was incubated with Ni-charged MagBeads (GenScript; catalog no. […] Bound proteins were washed with 50 ml binding buffer and eluted in elution buffer containing a gradient of imidazole ranging from 5 to 500 mM. Peak fractions were pooled and stored in 50% glycerol at -80°C. Reactions were carried out in duplicate in 96-well low-profile, skirted, white plates (catalog no. AB0800WL; […] The reaction mixtures were incubated at room temperature for 3 h, and ATP depletion was monitored by using Kinase-Glo luminescent kinase kit following the manufacturer's instructions (catalog no. V6712; Promega, WI, USA).

HBV = HBV replication intermediates and viral proteins in HepG2.2.15 cells (Northern, Western, particle gel, Southern); type: cell-based, hepatitis B virus; conditions: HepG2.2.15, 6 days; ETV, GLS-4, cmpdA 1 μM; AB-452 70 nM
Experimental: Total cellular RNA was extracted from HepG2.2.15 or HepAD38 cells treated with or without antiviral compounds using TRIzol reagent according to the manufacturer's directions (Thermo Fisher Scientific, Waltham, MA). Northern blotting was performed as described previously ([1]). Briefly, total RNA was separated in a 1.5% agarose gel and transferred onto an Amersham Hybond-XL membrane (product no. GERPN303S; GE Healthcare, IL, USA). Membranes were probed with an [α-^32P]UTP (PerkinElmer, CT, USA)-labeled minus strand-specific full-length HBV riboprobe (3.2 kb) transcribed from plasmid pSP65_HBV(+) DNA. Membranes were exposed to a phosphoimager screen, and the hybridization signals were quantified using Image Studio software (Li-Cor Biosciences, NE, USA).
Total intracellular viral core-associated DNA was extracted as described previously ([1]) and analyzed by Southern blotting hybridization with an [α-^32P]UTP-labeled full-length HBV riboprobe (3.2 kb) that specifically hybridized to minus strand of viral DNA. Membranes were exposed to a phosphoimager screen, and the hybridization signals were quantified using Image Studio software.
HepG2.2.15 or HepAD38 cells cultured in a 12-well plate were lysed with 200 μl Laemmli sample buffer (Bio-Rad, PA, USA) supplemented with 2.5% 2-mercaptoethanol (Sigma-Aldrich, MO, USA). […]

in vitro = type: cell-based; conditions: human
Excerpt: TABLE 3 Cytotoxicity of AB-452 against cells derived from various tissues | column: AB-452 CC50 (μM)

COCCCOc1cc2c(nc1OC)-c1cc(=O)c(C(=O)O)cn1[C@H](C(C)C)C2 [AB-452]
pIC50 (recombinant human PAPD5): 7.03 | Effect on HBV replication intermediates and viral proteins (HBV): reducing intracellular pgRNA, sRNA, core protein, native capsids, encapsidated pgRNA, and replicating HBV DNA | CC50 (in vitro): > 30000 nM
